# Test results published in article PMC5444726, “A CD44-specific peptide, RP-1, exhibits capacities of assisting diagnosis and predicting prognosis of gastric cancer” (Oncotarget, 2017).
# Columns and labels:
# [1] = tested on: CD44 on MKN-28-CD44-ox cells; assay: Confocal immunofluorescence of peptide binding to CD44-overexpressing MKN-28 cells; format: cell-based, human; details: 100 μM Alexa Fluor 594 labeled peptide, 20 min, fixed cells, confocal microscopy
# Description: (§1) Plasmids containing cDNA of CD44 protein were synthesized by GENECHEM, Shanghai, China. Using Pfu polymerase and two oligonucleotides ([…] and […]), the CD44 cDNA was cloned into Xhol and ECOR1 sites of GV146 (GENECHEM, Shanghai, China) by recombinant PCR. Then, CD44-negative MNK-28 cells were transfected with the plasmid with Lipofectamine 2000 reagent (Invitrogen, California, USA), and then the efficiency of CD44 expression in MKN-28 cells was tested. Finally, two cell lines were generated as following: MKN-28-con with no CD44 expression and MKN-28-CD44-ox with CD44 overexpression labeled with enhanced green fluorescent protein (EGFP).
# (§2) For the preparation of confocal laser microscopy, the transfected MNK-28 cancer cells were washed with phosphate buffer saline (PBS) three times, then fixed with 4% paraformaldehyde at ambient temperature for 30 min, and blocked with 5% BSA (w/v) in PBS at 37°C for 1 h. The blocked cells were sequentially incubated with 100 μM RP-1 or WYP labeled with Alexa Fluor 594 for 20 min, and counterstained with 4,6-diamidino-2-phenylindole (DAPI). […] For the evaluation of the correlation of fluorescent intensities between CD44-EGFP and RP-1-Fluor 594, a semi-quantitative analysis was performed with ImageJ 1.48v software (National Institutes of Health, Maryland, USA) by randomly selecting and observing 10 fields of vision. […]
# [2] = tested on: MKN-28 cells not expressing CD44 transgenes; assay: Confocal immunofluorescence of peptide binding to non-CD44 MKN-28 cells; format: cell-based, human; details: 100 μM Alexa Fluor 594 labeled peptide, 20 min, co-culture with CD44-overexpressing cells, confocal microscopy
# Description: as §1, §2
# [3] = tested on: SGC-7901 tumor tissue; assay: Fluorescence microscopy of frozen xenograft sections after injection; format: in vivo, athymic nude mice; details: 3 h after i.v. injection of peptide
# Description: Once fluorescence signal reached its peak at the site of tumor, subcutaneous tumor tissues were harvested for further experiment. After shock-frozen with liquid nitrogen, tumor tissues were cut into 5 μm sections and fixed in 4% paraformaldehyde at ambient temperature for 30 min. The coverslips were mounted with glycerol–gelatin containing anti-fading buffer (Bioworld, Minnesota, USA). Finally, the fluorescence images of frozen sections were captured with a fluorescent microscope (Nikon-Eclipse, Tokyo, Japan)
# [4] = tested on: SGC-7901 subcutaneous xenograft; assay: In vivo fluorescence imaging and biodistribution in SGC-7901 xenograft mice
# Description: All animal procedures were approved by the Ethics Committee of Xi’an Jiaotong University and conducted in accordance with the Helsinki Declaration (1975). Athymic nude mice (male, 4–5 weeks old, with a body weight of 20–25 g) were obtained from the Animal Experiment Center of Xi’an Jiaotong University, Xi’an, China. The SGC-7901 tumor xenografts were generated by subcutaneous injection of 5–8 × 10^6 SGC-7901 cells suspended in 200 μL culture medium into the left axilla of mice. The cells were allowed to grow for 2 weeks until tumor volume reached an estimate of 1 cm^3.
# In vivo fluorescence imaging was performed with the IVIS Spectrum Imaging System and analyzed with the IVIS Living Imaging 4.2 software (Xenogen, California, USA). Identical imaging settings (exposure time: 40s; binning: 16; lens aperture [f/stop]: 4; field of view: 13.3) were used for capturing images. Fluorescent intensity was normalized and presented as (p/sec/cm^2/sr)/(μW/cm^2). The mice from the experimental group (n = 10) and control group (n = 10) were intravenously injected with 1 mg/kg FITC-RP-1 and FITC-WYP, respectively. Mice anesthetized with isoflurane were subjected to optical imaging at each hour since 1h after injection. Finally, solid tumors, tissues, and organs were all harvested and rinsed with PBS for further analysis of the distribution of FITC-RP-1.
# [5] = excised tissue, 3 h after i.v. FITC-RP-1, 1 μg/g
sequence,measurement,setting,value
WHPWSYLWTQQA [RP-1],binding of peptide to CD44 on the cell membrane,[1],apparent binding of RP-1 peptides to CD44 on the cell membrane
same,binding of peptide to cells without CD44,[2],bound considerably lower amounts of RP-1 peptide
same,fluorescence on tumor cells in frozen sections,[3],fluorescence signals were observed both on cell membrane and in cytoplasm
same,organs with accumulation (fluorescence of excised tissues),"[4]; 3 h after i.v. injection of FITC-labeled peptide, 1 μg/g",accumulation of RP-1 in tumor tissue and liver
same,fluorescence signal remaining (elimination),[4]; 6 h after intravenous injection,almost undetectable
same,"fluorescent intensity, kidney",[4]; [5],2.00 × 10^8 (p/sec/cm^2/sr) /(μW/cm^2)
same,"fluorescent intensity, liver",[4]; [5],5.58 × 10^8 (p/sec/cm^2/sr) /(μW/cm^2)
same,"fluorescent intensity, stomach",[4]; [5],2.28 × 10^8 (p/sec/cm^2/sr) /(μW/cm^2)
same,"fluorescent intensity, tumor","[4]; excised tissue, 3 h after i.v. FITC-RP-1, 1 μg/g, tumor vs other organs P < 0.001",1.14 × 10^9 (p/sec/cm^2/sr) /(μW/cm^2)
